“Also recorded” adds a separate entry of the source.
Assay: Solubility in solvents and monomer
Format: physicochemical

Row | Solubility in THF | Solubility in acetone (acetone) | Solubility in chloroform (chloroform) | Solubility in deionized water (deionized water) | Solubility in ethanol (ethanol) | Solubility in ethyl acetate (ethyl acetate) | Solubility in n-heptane (n-heptane) | SMILES | Solubility in N-vinylpyrrolidone
1 | Freely soluble |  |  |  |  |  |  | C=C(C)C(=O)NCCCNC(=O)c1ccc(C(=O)c2ccccc2)cc1 [APMA-BBC, N-[3-(4-benzoylbenzamido)propyl]methacrylamide] | readily soluble; also recorded: Freely soluble
2 | moderately soluble | insoluble | highly soluble | insoluble | insoluble | insoluble | slightly to sparingly soluble | C=C(C)C(=O)OCCOC(=O)c1ccc(C(=O)c2ccccc2)cc1 [HEMA-BBA, 1-(4-benzoylbenzoic acid)-2-methaacrylic acid-glycolester] | only slowly soluble
